We go through 5 molecules from ChEMBL document CHEMBL3272016, “Potential inhibitors of collagen biosynthesis. 5,5-Difluoro-DL-lysine and 5,5-dimethyl-DL-lysine and their activation by lysyl-tRNA ligase” (J Med Chem, 1977).

Data set [1] in a line: Dissociation constant, pKa of the compound. It counts as physicochemical.
Data set [2] deals with P388. Nature of the data set: Cytotoxicity against mouse P388 cells assessed as growth inhibition at 0.5 mM after 72 hrs by hemocytometry. As to conditions: P388, 72 h, read-out: GI. It counts as functional.
The next data set relates to L929. Nature of the data set: Inhibition of collagen biosynthesis in mouse L929 fibroblasts assessed as [3H]lysine/[14C]proline incorporation into protein at 5 mM. It counts as functional, cell-based.
The species named for data set [3] is Mus musculus. Nature of the data set: Inhibition of peptidyl lysine hydroxylase in mouse L929 fibroblasts assessed as release of [3H] as [3H]OH from [4,5-3H]lysylprotocollagen measured per mg of protein at 0.01 mM (reference value: 1228 cpm).
The species entered for data set [4] is Mus musculus. Nature of the data set: Inhibition of peptidyl lysine hydroxylase in mouse L929 fibroblasts assessed as release of [3H] as [3H]OH from [4,5-3H]lysylprotocollagen measured per mg of protein at 0.05 mM (reference value: 1228 cpm).
The species named for data set [5] is Mus musculus. Nature of the data set: Inhibition of peptidyl lysine hydroxylase in mouse L929 fibroblasts assessed as release of [3H] as [3H]OH from [4,5-3H]lysylprotocollagen measured per mg of protein at 0.10 mM (reference value: 1228 cpm).
The species named for data set [6] is Mus musculus. Nature of the data set: Inhibition of peptidyl lysine hydroxylase in mouse L929 fibroblasts assessed as release of [3H] as [3H]OH from [4,5-3H]lysylprotocollagen measured per mg of protein at 0.20 mM (reference value: 1228 cpm).
The species named for data set [7] is Mus musculus. Description: Inhibition of peptidyl lysine hydroxylase in mouse L929 fibroblasts assessed as release of [3H] as [3H]OH from [4,5-3H]lysylprotocollagen measured per mg of protein at 1 mM (reference value: 1228 cpm).
The species entered for data set [8] is Mus musculus. Description: Inhibition of peptidyl lysine hydroxylase in mouse L929 fibroblasts assessed as release of [3H] as [3H]OH from [4,5-3H]lysylprotocollagen measured per mg of protein at 2 mM (reference value: 1228 cpm).
The species entered for data set [9] is Mus musculus. Description: Inhibition of peptidyl lysine hydroxylase in mouse L929 fibroblasts assessed as release of [3H] as [3H]OH from [4,5-3H]lysylprotocollagen measured per mg of protein at 5 mM (reference value: 1228 cpm).
The species named for data set [10] is Mus musculus. Description: Inhibition of peptidyl lysine hydroxylase in mouse L929 fibroblasts.
Data set [11] relates to P388. Nature of the data set: Cytotoxicity against mouse P388 cells assessed as growth inhibition at 0.55 mM after 72 hrs by hemocytometry. It counts as functional, cell-based.
The nature of data set [12]: Competitive inhibition of Escherichia coli B lysyl-tRNA ligase using lysine as substrate after 15 mins by double reciprocal plot analysis. As to conditions: read-out: Ki(app).
Data set [13] relates to P388. Nature of the data set: Cytotoxicity against mouse P388 cells assessed as growth inhibition at 0.15 mM after 72 hrs by hemocytometry. The class given is functional. The following applies: P388, 72 h, read-out: GI.

Activity calls are given as the source filed them. No cut-off for these calls is given here.

Description for Escherichia coli B: Activity of Escherichia coli B lysyl-tRNA ligase after 15 mins by Lineweaver-Burk plot analysis

In [1], `NCCSC[C@H](N)C(=O)O` displayed a pKa of 9.52. For the same molecule, the inhibition of growth at 500 µM in the data set with P388 [2] was found to be 93%. The Km in the data set on Escherichia coli B amounted to 1.4 µM.
As to `NCC(F)(F)CCC(N)C(=O)O` (racemic), the pKa in data set [1] was determined as 6.88. In addition, the result in the data set with L929 was inactive. For the same molecule, the Activity in the data set listed under Mus musculus [3] turned out to be 1220 cpm; in the data set listed under Mus musculus [4], 1270 cpm; in the data set listed under Mus musculus [5], 1230 cpm; in the data set filed under Mus musculus [6] it was 1270 cpm; in the data set filed under Mus musculus [7], 1070 cpm; in the data set filed under Mus musculus [8], 1080 cpm. The Activity in the data set filed under Mus musculus [9] worked out at 920 cpm. Also, the inhibition result in the data set listed under Mus musculus [10] is “inactive”. For the same molecule, the “growth inhibition (GI)” value with P388 [11] was “inactive”. Also, the Michaelis constant (Km) with Escherichia coli B came to 1310 µM.
On to `CC(C)(CN)CCC(N)C(=O)O` (racemic), for which the pKa in data set [1] came out at 10.2. For the same molecule, in data set [12], the Ki turned out to be 16.2 mM. Besides, in the data set on P388 [11], the “growth inhibition (GI)” value was “inactive”.
For `NC(=O)NO` [HYDROXYUREA], in the data set with P388 [13], the inhibition of growth at 150 µM amounted to 87%.
In the case of `NCCCC[C@H](N)C(=O)O` [LYSINE], in data set [1], the pKa turned out to be 10.6. Further, the Michaelis-Menten constant (Km) in the data set on Escherichia coli B was 0.5 µM.

Broadly, the pKa is the pH at which an ionisable group is half protonated. Read a low pKa as a stronger acid or weaker base. As a reminder, the Km is the concentration of substrate that gives half-maximal velocity.
